Assays:
[1] = test system: Mstn, Myd1, Myog, and Myf5 gene expression in C2C12 mouse-derived myotubes; experiment: RT-qPCR of muscle cell differentiation-related gene expression; assay type: cell-based; conditions: dexamethasone 10 μM, beta-actin control, FIG. 7; for Mstn gene expression (marker of muscle growth inhibition): increased by dexamethasone; for Myd1 gene expression (marker of myogenic differentiation) / Myf5 gene expression (marker of myogenic differentiation) / Myog gene expression (marker of myogenic differentiation): reduced by dexamethasone
Description: (§1) C2C12 mouse-derived myotubes treated with dexamethasone 10 μM were washed twice with PBS, and total RNA was extracted according to the user-recommended protocol of an RNA extraction kit (GeneAll RNA isolation kit, Seoul, South Korea). cDNA was synthesized from the extracted RNA and subjected to real time-quantitative polymerase chain reaction (RT-qPCR). POR analysis was performed according to the user-recommended cycling conditions of the analyzer (Applied Biosystems 7900 HT thermal cycler, Applied Biosystems). To determine the expression level of each mRNA, fold change values relative to the control were calculated using beta-actin as an endogenous control, and relative expression levels were compared.

[2] = test system: C2C12 myotubes; experiment: Oxidative stress (GSH content) and mitochondrial function in dexamethasone-treated myotubes; assay type: cell-based, mouse; conditions: 20 μM compound, 100 μM dexamethasone for 24 hours, FIG. 8; for glutathione (GSH) content: decreased by dexamethasone
Description: (§2) Cell culture and differentiation of myoblasts: C2C12 mouse (CRL1772; American type cell collection, USA) derived myoblasts were cultured in Dulbecco's Modified Eagle's Medium (DMEM) medium supplemented with 10 (v/v) % FBS, and after reaching 90% confluence, they were transferred to DMEM medium containing 2 (v/v) % horse serum and cultured for 7 days to differentiate into myotubes.
As in Example 4, C2C12 myoblasts were differentiated into myotubes, and then treated with 100 μM of dexamethasone for 24 hours to induce oxidative stress or mitochondrial dysfunction, and then treated with 20 μM of three compounds (catechol, 4-ethyl catechol, and methyl dihydroxycaffeate) isolated from the extract of Aralia Elata to determine their efficacy in ameliorating oxidative stress and mitochondrial dysfunction. […] Furthermore, the mitochondrial dysfunction induced by dexamethasone treatment was ameliorated by treatment with the present compound derived from the extract of Aralia Elata (FIG. 8).

[3] = test system: Ppargc1a, UCp3, Tomm20, and Tfam gene expression in C2C12 mouse-derived cells; experiment: RT-qPCR of exercise performance-related gene expression; assay type: cell-based; conditions: dexamethasone 10 μM, beta-actin control, reduced by dexamethasone, FIG. 9
Description: as §1, with “mouse-derived endodermal cells” for “mouse-derived myotubes”, “extracted RNA,” for “extracted RNA”, “(RT-qPCR). PCR” for “(RT-qPCR). POR”

[4] = test system: Ppargc1a, UCp3, Tomm20, and Tfam gene expression in C2C12 mouse-derived endodermal cells; experiment: as above; assay type: cell-based; conditions: dexamethasone 10 μM, beta-actin control, reduced by dexamethasone, FIG. 9
Description: as §1, with “mouse-derived endodermal cells” for “mouse-derived myotubes”, “extracted RNA,” for “extracted RNA”, “(RT-qPCR). PCR” for “(RT-qPCR). POR”

[5] = test system: C2C12 myotubes; experiment: Myotube cell survival rate after dexamethasone-induced myoatrophy; assay type: cell-based, mouse; conditions: 20 μM compound; 100 μM dexamethasone for 24 hours; FIG. 5
Description: as §2
C2C12 myoblasts were differentiated into myotubes, and then treated with 100 μM of dexamethasone for 24 hours to induce myoatrophy, and 20 μM of 13 compounds isolated from the extract (see Table 1) to determine the effect of alleviating myoatrophy.

[6] = test system: mice in which sarcopenia was induced by administration of Dexamethasone; experiment: Grip strength and body weight in dexamethasone-induced sarcopenia mouse model; assay type: in vivo, C57BL/6J mice; conditions: compared to the group treated only with Dexamethasone (25 mg/kg i.p., 2 weeks); oral once daily 4 weeks; AE 10, 50 or 100 mg/kg, S-23 25 mg/kg; FIG. 2
Description: The present inventors created a sarcopenia mouse model to confirm the effectiveness of Aralia Elata extract prepared in the above-described preparation example to treat or improve sarcopenia, and measured grip strength using the control mouse and the sarcopenia mouse model.
The mice used to confirm the efficacy of Aralia Elata extract were prepared through the following process.
The test substance was prepared in the form of a liquid suspension using 0.5% CMC and administered for 4 weeks. To correct for the placebo effect of 0.5% CMC and the weight loss effect due to administration stress, 0.5% CMC was orally administered daily to the vehicle control group. Two weeks after administration of the test substance, the experimental group was administered intraperitoneal injection of Dexamethasone for two weeks to induce sarcopenia, and the normal control group was administered saline solution by intraperitoneal injection. All mice were provided with the same AlN76 diet (Research Diets), and the test substances were administered for an additional 2 weeks for a total of 4 weeks. The dark: light cycle was maintained at 12-hour:12-hour intervals, and water was allowed to be consumed freely. […] (Dex: Dexamethasone sarcopenia-inducing substance (25 mg/kg), AE: Aralia Elata extract (10, 50, or 100 mg/kg)).

SMILES | Mstn gene expression (marker of muscle growth inhibition) [1] | Myd1 gene expression (marker of myogenic differentiation) [1] | Myf5 gene expression (marker of myogenic differentiation) [1] | Myog gene expression (marker of myogenic differentiation) [1] | mitochondrial dysfunction induced by dexamethasone treatment [2] | glutathione (GSH) content [2] | Ppargc1a gene expression [3] | Tfam gene expression [4] | Tomm20 gene expression [4] | UCp3 gene expression [4] | viability of myotubes reduced by dexamethasone treatment [5] | body weight [6] | grip strength [6]
CCc1ccc(O)c(O)c1 [4-ethyl catechol] | decreased | increased | increased | increased | ameliorated | increased again | increased | increased | increased | increased |  |  | 
Oc1ccccc1O [Compound 3, Catechol] | decreased | increased | increased | increased | ameliorated | increased again | increased | increased | increased | increased | significantly superior effect |  | 
CCc1ccc(O)c(O)c1 [Compound 4, 4-ethyl catechol] |  |  |  |  |  |  |  |  |  |  | significantly superior effect |  | 
C[C@](O)(COc1ccc(Cl)c(F)c1)C(=O)Nc1ccc(C#N)c(C(F)(F)F)c1 [Compound S-23] |  |  |  |  |  |  |  |  |  |  |  | increased | increased

Reference: patent US20240424043A1, “COMPOSITION FOR PREVENTING OR TREATING MUSCLE DISEASE COMPRISING ARALIA ELATA EXTRACT” (KOREA INSTITUTE OF SCIENCE AND TECHNOLOGY, priority 2023, published 2024)
